Measured values: the NIST ThermoML archive (doi:10.1021/je501041r)
Numbers after ± are expanded uncertainties.

Columns and labels:
[1] = 101 kPa, Liquid; for viscosity: Capillary tube (Ostwald / Ubbelohde) method; for mass density: Vibrating tube method
[2] = xn = mol fraction of the nth substance listed; settings: 101 kPa, Liquid; for viscosity: Capillary tube (Ostwald / Ubbelohde) method; for mass density: Vibrating tube method

CC(C)CC(C)(C)C [2,2,4-trimethylpentane]
viscosity ([1]; 298.15 K): 0.478 ± 0.006 mPa·s
mass density ([1]; 298.15 K): 687.82 ± 2 kg/m3
viscosity ([1]; 303.15 K): 0.453 ± 0.005 mPa·s
mass density ([1]; 303.15 K): 683.68 ± 2 kg/m3
viscosity ([1]; 308.15 K): 0.429 ± 0.005 mPa·s
mass density ([1]; 308.15 K): 679.52 ± 2 kg/m3
viscosity ([1]; 313.15 K): 0.408 ± 0.005 mPa·s
mass density ([1]; 313.15 K): 675.32 ± 2 kg/m3
viscosity ([1]; 318.15 K): 0.388 ± 0.005 mPa·s
mass density ([1]; 318.15 K): 671.1 ± 2 kg/m3
viscosity ([1]; 323.15 K): 0.369 ± 0.005 mPa·s
mass density ([1]; 323.15 K): 666.85 ± 2 kg/m3

CC(C)CC(C)(C)C [2,2,4-trimethylpentane] + CCCCCCCO
viscosity ([2]; 298.15 K, x1 = 1): 0.478 ± 0.006 mPa·s
mass density ([2]; 298.15 K, x1 = 1): 687.82 ± 2 kg/m3
viscosity ([2]; 303.15 K, x1 = 1): 0.453 ± 0.005 mPa·s
mass density ([2]; 303.15 K, x1 = 1): 683.68 ± 2 kg/m3
viscosity ([2]; 308.15 K, x1 = 1): 0.429 ± 0.005 mPa·s
mass density ([2]; 308.15 K, x1 = 1): 679.52 ± 2 kg/m3
viscosity ([2]; 313.15 K, x1 = 1): 0.408 ± 0.005 mPa·s
mass density ([2]; 313.15 K, x1 = 1): 675.32 ± 2 kg/m3
viscosity ([2]; 318.15 K, x1 = 1): 0.388 ± 0.005 mPa·s
mass density ([2]; 318.15 K, x1 = 1): 671.1 ± 2 kg/m3
viscosity ([2]; 323.15 K, x1 = 1): 0.369 ± 0.005 mPa·s
mass density ([2]; 323.15 K, x1 = 1): 666.85 ± 2 kg/m3

CC(C)CC(C)(C)C [2,2,4-trimethylpentane] + CCCCCCO
viscosity ([2]; 298.15 K, x1 = 1): 0.478 ± 0.006 mPa·s
mass density ([2]; 298.15 K, x1 = 1): 687.82 ± 2 kg/m3
viscosity ([2]; 303.15 K, x1 = 1): 0.453 ± 0.005 mPa·s
mass density ([2]; 303.15 K, x1 = 1): 683.68 ± 2 kg/m3
viscosity ([2]; 308.15 K, x1 = 1): 0.429 ± 0.005 mPa·s
mass density ([2]; 308.15 K, x1 = 1): 679.52 ± 2 kg/m3
viscosity ([2]; 313.15 K, x1 = 1): 0.408 ± 0.005 mPa·s
mass density ([2]; 313.15 K, x1 = 1): 675.32 ± 2 kg/m3
viscosity ([2]; 318.15 K, x1 = 1): 0.388 ± 0.005 mPa·s
mass density ([2]; 318.15 K, x1 = 1): 671.1 ± 2 kg/m3
viscosity ([2]; 323.15 K, x1 = 1): 0.369 ± 0.005 mPa·s
mass density ([2]; 323.15 K, x1 = 1): 666.85 ± 2 kg/m3

CC(C)CC(C)(C)C [2,2,4-trimethylpentane] + CCCCCO
viscosity ([2]; 298.15 K, x1 = 1): 0.478 ± 0.006 mPa·s
mass density ([2]; 298.15 K, x1 = 1): 687.82 ± 2 kg/m3
viscosity ([2]; 303.15 K, x1 = 1): 0.453 ± 0.005 mPa·s
mass density ([2]; 303.15 K, x1 = 1): 683.68 ± 2 kg/m3
viscosity ([2]; 308.15 K, x1 = 1): 0.429 ± 0.005 mPa·s
mass density ([2]; 308.15 K, x1 = 1): 679.52 ± 2 kg/m3
viscosity ([2]; 313.15 K, x1 = 1): 0.408 ± 0.005 mPa·s
mass density ([2]; 313.15 K, x1 = 1): 675.32 ± 2 kg/m3
viscosity ([2]; 318.15 K, x1 = 1): 0.388 ± 0.005 mPa·s
mass density ([2]; 318.15 K, x1 = 1): 671.1 ± 2 kg/m3
viscosity ([2]; 323.15 K, x1 = 1): 0.369 ± 0.005 mPa·s
mass density ([2]; 323.15 K, x1 = 1): 666.85 ± 2 kg/m3

CCCCCCCO [heptan-1-ol]
viscosity ([1]; 298.15 K): 6.004 ± 0.073 mPa·s
mass density ([1]; 298.15 K): 818.82 ± 2 kg/m3
viscosity ([1]; 303.15 K): 5.079 ± 0.062 mPa·s
mass density ([1]; 303.15 K): 815.3 ± 2 kg/m3
viscosity ([1]; 308.15 K): 4.374 ± 0.054 mPa·s
mass density ([1]; 308.15 K): 811.75 ± 2 kg/m3
viscosity ([1]; 313.15 K): 3.8 ± 0.047 mPa·s
mass density ([1]; 313.15 K): 808.17 ± 2 kg/m3
viscosity ([1]; 318.15 K): 3.224 ± 0.04 mPa·s
mass density ([1]; 318.15 K): 804.57 ± 2 kg/m3
viscosity ([1]; 323.15 K): 2.851 ± 0.035 mPa·s
mass density ([1]; 323.15 K): 800.93 ± 2 kg/m3

CCCCCCO [hexan-1-ol]
viscosity ([1]; 298.15 K): 4.605 ± 0.056 mPa·s
mass density ([1]; 298.15 K): 815.3 ± 2 kg/m3
viscosity ([1]; 303.15 K): 3.944 ± 0.048 mPa·s
mass density ([1]; 303.15 K): 811.71 ± 2 kg/m3
viscosity ([1]; 308.15 K): 3.414 ± 0.042 mPa·s
mass density ([1]; 308.15 K): 808.09 ± 2 kg/m3
viscosity ([1]; 313.15 K): 2.96 ± 0.036 mPa·s
mass density ([1]; 313.15 K): 804.43 ± 2 kg/m3
viscosity ([1]; 318.15 K): 2.581 ± 0.032 mPa·s
mass density ([1]; 318.15 K): 800.75 ± 2 kg/m3
viscosity ([1]; 323.15 K): 2.251 ± 0.028 mPa·s
mass density ([1]; 323.15 K): 797.02 ± 2 kg/m3

CCCCCO [pentan-1-ol]
viscosity ([1]; 298.15 K): 3.458 ± 0.042 mPa·s
mass density ([1]; 298.15 K): 810.59 ± 2 kg/m3
viscosity ([1]; 303.15 K): 3.007 ± 0.037 mPa·s
mass density ([1]; 303.15 K): 807.89 ± 2 kg/m3
viscosity ([1]; 308.15 K): 2.625 ± 0.032 mPa·s
mass density ([1]; 308.15 K): 804.16 ± 2 kg/m3
viscosity ([1]; 313.15 K): 2.317 ± 0.029 mPa·s
mass density ([1]; 313.15 K): 800.4 ± 2 kg/m3
viscosity ([1]; 318.15 K): 2.029 ± 0.025 mPa·s
mass density ([1]; 318.15 K): 796.59 ± 2 kg/m3
viscosity ([1]; 323.15 K): 1.795 ± 0.022 mPa·s
mass density ([1]; 323.15 K): 792.75 ± 2 kg/m3

CCCO [propan-1-ol]
viscosity ([1]; 298.15 K): 1.955 ± 0.023 mPa·s
mass density ([1]; 298.15 K): 800.03 ± 2 kg/m3
viscosity ([1]; 303.15 K): 1.737 ± 0.02 mPa·s
mass density ([1]; 303.15 K): 796.01 ± 2 kg/m3
viscosity ([1]; 308.15 K): 1.548 ± 0.018 mPa·s
mass density ([1]; 308.15 K): 791.92 ± 2 kg/m3
viscosity ([1]; 313.15 K): 1.384 ± 0.016 mPa·s
mass density ([1]; 313.15 K): 787.79 ± 2 kg/m3
viscosity ([1]; 318.15 K): 1.241 ± 0.015 mPa·s
mass density ([1]; 318.15 K): 783.65 ± 2 kg/m3
viscosity ([1]; 323.15 K): 1.117 ± 0.013 mPa·s
mass density ([1]; 323.15 K): 779.43 ± 2 kg/m3

CCCO [propan-1-ol] + CC(C)CC(C)(C)C
viscosity ([2]; 298.15 K, x2 = 0): 1.955 ± 0.023 mPa·s
mass density ([2]; 298.15 K, x2 = 0): 800.03 ± 2 kg/m3
viscosity ([2]; 303.15 K, x2 = 0): 1.737 ± 0.02 mPa·s
mass density ([2]; 303.15 K, x2 = 0): 796.01 ± 2 kg/m3
viscosity ([2]; 308.15 K, x2 = 0): 1.548 ± 0.018 mPa·s
mass density ([2]; 308.15 K, x2 = 0): 791.92 ± 2 kg/m3
viscosity ([2]; 313.15 K, x2 = 0): 1.384 ± 0.016 mPa·s
mass density ([2]; 313.15 K, x2 = 0): 787.79 ± 2 kg/m3
viscosity ([2]; 318.15 K, x2 = 0): 1.241 ± 0.015 mPa·s
mass density ([2]; 318.15 K, x2 = 0): 783.65 ± 2 kg/m3
viscosity ([2]; 323.15 K, x2 = 0): 1.117 ± 0.013 mPa·s
mass density ([2]; 323.15 K, x2 = 0): 779.43 ± 2 kg/m3
